For four compounds, mutagenic call results are on record in PubChem BioAssay AID1259407 (Chemical Carcinogenesis Research Information System (CCRIS), 2018).

Calls of active or inactive are those of the source. The rule behind the calls is not given here.

This data set has as its system CCRIS mutagenicity, Ames/micronucleus/aberration tests. The experiment in a line: CCRIS mutagenicity studies.
Where [1] appears, read: Test System: AMES SALMONELLA TYPHIMURIUM, Strain/Indicator: TA98, Metabolic Activation: HAMSTER, LIVER, S-9, AROCLOR 1254 (10%), Method: PREINCUBATION
[2] abbreviates: Test System: AMES SALMONELLA TYPHIMURIUM, Strain/Indicator: TA98, Metabolic Activation: NONE, Method: PREINCUBATION
Where [3] appears, read: Test System: AMES SALMONELLA TYPHIMURIUM, Strain/Indicator: TA98, Metabolic Activation: RAT, LIVER, S-9, AROCLOR 1254 (10%), Method: PREINCUBATION
Where [4] appears, read: Test System: AMES SALMONELLA TYPHIMURIUM, Strain/Indicator: TA100, Metabolic Activation: HAMSTER, LIVER, S-9, AROCLOR 1254 (10%), Method: PREINCUBATION
The mark [5] stands for this setting: Test System: AMES SALMONELLA TYPHIMURIUM, Strain/Indicator: TA100, Metabolic Activation: NONE, Method: PREINCUBATION
The mark [6] stands for this setting: Test System: AMES SALMONELLA TYPHIMURIUM, Strain/Indicator: TA1535, Metabolic Activation: HAMSTER, LIVER, S-9, AROCLOR 1254 (10%), Method: PREINCUBATION
Where [7] appears, read: Test System: AMES SALMONELLA TYPHIMURIUM, Strain/Indicator: TA1535, Metabolic Activation: NONE, Method: PREINCUBATION
The mark [8] stands for this setting: Test System: AMES SALMONELLA TYPHIMURIUM, Strain/Indicator: TA1535, Metabolic Activation: RAT, LIVER, S-9, AROCLOR 1254 (10%), Method: PREINCUBATION
Where [9] appears, read: Test System: AMES SALMONELLA TYPHIMURIUM, Strain/Indicator: TA1537, Metabolic Activation: NONE, Method: PREINCUBATION

As to `Cc1ccccc1Br`, the mutagenic call (Test System: AMES SALMONELLA TYPHIMURIUM, Strain/Indicator: TA97, Metabolic Activation: HAMSTER, LIVER, S-9, AROCLOR 1254 (10%), Method: PREINCUBATION) was “inactive; negative”; the mutagenic call (Test System: AMES SALMONELLA TYPHIMURIUM, Strain/Indicator: TA97, Metabolic Activation: HAMSTER, LIVER, S-9, AROCLOR 1254 (30%), Method: PREINCUBATION) was “inactive; negative”; the mutagenic call (Test System: AMES SALMONELLA TYPHIMURIUM, Strain/Indicator: TA97, Metabolic Activation: NONE, Method: PREINCUBATION) was “inactive; negative”; the mutagenic call (Test System: AMES SALMONELLA TYPHIMURIUM, Strain/Indicator: TA97, Metabolic Activation: RAT, LIVER, S-9, AROCLOR 1254 (10%), Method: PREINCUBATION) was “inactive; negative”; the mutagenic call (Test System: AMES SALMONELLA TYPHIMURIUM, Strain/Indicator: TA97, Metabolic Activation: RAT, LIVER, S-9, AROCLOR 1254 (30%), Method: PREINCUBATION) was “inactive; negative”; the mutagenic call under setting [1] is “inactive; negative”. Besides, the mutagenic call (Test System: AMES SALMONELLA TYPHIMURIUM, Strain/Indicator: TA98, Metabolic Activation: HAMSTER, LIVER, S-9, AROCLOR 1254 (30%), Method: PREINCUBATION) is “inactive; negative”; the mutagenic call under setting [2] is “inactive; negative”; the mutagenic call (Test System: AMES SALMONELLA TYPHIMURIUM, Strain/Indicator: TA98, Metabolic Activation: RAT LIVER S-9, PHENOBARBITAL AND BETA-NAPHTHOFLAVONE, Method: PREINCUBATION) was “inactive; negative”; the mutagenic call under setting [3] is “inactive; negative”; the mutagenic call (Test System: AMES SALMONELLA TYPHIMURIUM, Strain/Indicator: TA98, Metabolic Activation: RAT, LIVER, S-9, AROCLOR 1254 (30%), Method: PREINCUBATION) was “inactive; negative”; the mutagenic call under setting [4] is “inactive; negative”. For the same compound, the mutagenic call runs as follows: (Test System: AMES SALMONELLA TYPHIMURIUM, Strain/Indicator: TA100, Metabolic Activation: HAMSTER, LIVER, S-9, AROCLOR 1254 (30%), Method: PREINCUBATION) “inactive; negative”; under setting [5], “inactive; negative”; (Test System: AMES SALMONELLA TYPHIMURIUM, Strain/Indicator: TA100, Metabolic Activation: RAT LIVER S-9, PHENOBARBITAL AND BETA-NAPHTHOFLAVONE, Method: PREINCUBATION) “inactive; negative”; (Test System: AMES SALMONELLA TYPHIMURIUM, Strain/Indicator: TA100, Metabolic Activation: RAT, LIVER, S-9, AROCLOR 1254 (10%), Method: PREINCUBATION) “inactive; negative”; (Test System: AMES SALMONELLA TYPHIMURIUM, Strain/Indicator: TA100, Metabolic Activation: RAT, LIVER, S-9, AROCLOR 1254 (30%), Method: PREINCUBATION) “inactive; negative”; (Test System: AMES SALMONELLA TYPHIMURIUM, Strain/Indicator: TA102, Metabolic Activation: NONE, Method: PREINCUBATION) “inactive; negative”. Also, the mutagenic call reads like this: (Test System: AMES SALMONELLA TYPHIMURIUM, Strain/Indicator: TA102, Metabolic Activation: RAT LIVER S-9, PHENOBARBITAL AND BETA-NAPHTHOFLAVONE, Method: PREINCUBATION) “inactive; negative”; (Test System: AMES SALMONELLA TYPHIMURIUM, Strain/Indicator: TA104, Metabolic Activation: NONE, Method: PREINCUBATION) “inactive; negative”; (Test System: AMES SALMONELLA TYPHIMURIUM, Strain/Indicator: TA104, Metabolic Activation: RAT LIVER S-9, PHENOBARBITAL AND BETA-NAPHTHOFLAVONE, Method: PREINCUBATION) “inactive; negative”; under setting [6], “inactive; negative”; (Test System: AMES SALMONELLA TYPHIMURIUM, Strain/Indicator: TA1535, Metabolic Activation: HAMSTER, LIVER, S-9, AROCLOR 1254 (30%), Method: PREINCUBATION) “inactive; negative”; under setting [7], “inactive; negative”. Besides, the mutagenic call is, setting by setting: (Test System: AMES SALMONELLA TYPHIMURIUM, Strain/Indicator: TA1535, Metabolic Activation: RAT LIVER S-9, PHENOBARBITAL AND BETA-NAPHTHOFLAVONE, Method: PREINCUBATION) “inactive; negative”; under setting [8], “inactive; negative”; (Test System: AMES SALMONELLA TYPHIMURIUM, Strain/Indicator: TA1535, Metabolic Activation: RAT, LIVER, S-9, AROCLOR 1254 (30%), Method: PREINCUBATION) “inactive; negative”; (Test System: AMES SALMONELLA TYPHIMURIUM, Strain/Indicator: TA1537, Metabolic Activation: HAMSTER, LIVER, S-9, AROCLOR 1254 (30%), Method: PREINCUBATION) “inactive; negative”; under setting [9], “inactive; negative”; (Test System: AMES SALMONELLA TYPHIMURIUM, Strain/Indicator: TA1537, Metabolic Activation: RAT LIVER S-9, PHENOBARBITAL AND BETA-NAPHTHOFLAVONE, Method: PREINCUBATION) “inactive; negative”. Moreover, the mutagenic call reads like this: (Test System: AMES SALMONELLA TYPHIMURIUM, Strain/Indicator: TA1537, Metabolic Activation: RAT, LIVER, S-9, AROCLOR 1254 (30%), Method: PREINCUBATION) “inactive; negative”; (Test System: E.COLI, Strain/Indicator: WP2UVRA/PKM101, Metabolic Activation: NONE, Method: PREINCUBATION) “inactive; negative”; (Test System: E.COLI, Strain/Indicator: WP2UVRA/PKM101, Metabolic Activation: RAT LIVER S-9, PHENOBARBITAL AND BETA-NAPHTHOFLAVONE, Method: PREINCUBATION) “inactive; negative”; (Test System: E.COLI, Strain/Indicator: WP2UVRA, Metabolic Activation: NONE, Method: PREINCUBATION) “inactive; negative”; (Test System: E.COLI, Strain/Indicator: WP2UVRA, Metabolic Activation: RAT LIVER S-9, PHENOBARBITAL AND BETA-NAPHTHOFLAVONE, Method: PREINCUBATION) “inactive; negative”.
On to `Cc1ccc(N=Nc2c(O)ccc3ccccc23)c([N+](=O)[O-])c1`, for which the mutagenic call under setting [1] was “active; positive”; the mutagenic call under setting [2] is “inactive; negative”; the mutagenic call under setting [3] was “inactive; negative”; the mutagenic call under setting [4] is “active; positive”; the mutagenic call under setting [5] was “inactive; negative”; the mutagenic call under setting [6] was “inactive; negative”. For the same compound, the mutagenic call was “inactive; negative” under setting [7]; “inactive; negative” under setting [8]; “inactive; negative” (Test System: AMES SALMONELLA TYPHIMURIUM, Strain/Indicator: TA1537, Metabolic Activation: HAMSTER, LIVER, S-9, AROCLOR 1254 (10%), Method: PREINCUBATION); “inactive; negative” under setting [9]; “inactive; negative” (Test System: AMES SALMONELLA TYPHIMURIUM, Strain/Indicator: TA1537, Metabolic Activation: RAT, LIVER, S-9, AROCLOR 1254 (10%), Method: PREINCUBATION).
In the case of `[Cl][Sn]([Cl])([c]1ccccc1)[c]1ccccc1`, the mutagenic call is “inactive; negative” (Test System: AMES SALMONELLA TYPHIMURIUM, Strain/Indicator: TA98, Metabolic Activation: NONE, Method: SUSPENSION/PLATE) and “inactive; negative” (Test System: AMES SALMONELLA TYPHIMURIUM, Strain/Indicator: TA100, Metabolic Activation: NONE, Method: SUSPENSION/PLATE).
Regarding `CC(C)CCCC(C)C1CCC2C3CC=C4CC(OCCO)CCC4(C)C3CCC12C` (configuration not stated), the mutagenic call by setting is: (Test System: AMES SALMONELLA TYPHIMURIUM, Strain/Indicator: TA98, Metabolic Activation: NONE, Method: STANDARD PLATE) “inactive; negative”; (Test System: AMES SALMONELLA TYPHIMURIUM, Strain/Indicator: TA98, Metabolic Activation: RAT, LIVER, MICROSOMES, Method: STANDARD PLATE) “inactive; negative”; (Test System: AMES SALMONELLA TYPHIMURIUM, Strain/Indicator: TA100, Metabolic Activation: NONE, Method: STANDARD PLATE) “inactive; negative”; (Test System: AMES SALMONELLA TYPHIMURIUM, Strain/Indicator: TA100, Metabolic Activation: RAT, LIVER, MICROSOMES, Method: STANDARD PLATE) “inactive; negative”.
